Measured values published in US4520029A, “Farnesene derivatives, mucosal stabilizing compositions and method of manufacturing the same” (Kotobuki Seiyaku Co., Ltd., priority 1980, dated 1985).

What was measured:
gastric epithelial cell = assay: Gastric epithelial cell stabilizing effect in pylorus-ligated rats (NANA in gastric juice); assay type: in vivo, rat; conditions: male Donryu rats, oral three times a day for five days, 8 hours after pylorus ligation; for NANA content in gastric juice, free: control 22.5, * P < 0.05 vs control (V, VI and VII all marked *); for NANA content in gastric juice, bound: control 93.3; for NANA content in gastric juice, bound / NANA content in gastric juice, total: * P < 0.05 vs control (only V marked *); for NANA content in gastric juice, total: control 115.8
Protocol: The investigation of the gastric epithelial cell stabilizing effects of these compounds were examined in rats. Male Donryu strain rats, weighing about 200 g, were given the test compound orally three times a day for five days. On the fifth day the animals were fasted for 24 hours, and submitted to pylorus ligation under light ether anesthesia. The test compounds were given just after pylorus ligation orally. After 8 hours of ligation, the rats were sacrificed and the volume of gastric juice was measured. After centrifuging 6 ml of this gastric juice at 5000 r.p.m., 2 ml of the resulting supernatant was submitted to N-acetyl neuraminic acid (NANA) determination according to the method of D. Aminoff (D. Aminoff et al., Biochem. J. […], 384-392 (1961)).

stress ulcer = assay: Stress ulcer in rats (anti-ulcerative action); assay type: in vivo, rat; conditions: 100 mg/kg per os, male Wister rats, 30 minutes before the stress; stressing 18 hours; control 4.6 ± 0.70
Protocol: To study the anti-ulcerative actions of these compounds of the present invention further, the stress ulcer was selected. Male Wister rats, weighing 200-250 g were subjected to stress according to Takagi et al. (Chem. Pharm. Bull 12, 465, 1964). These compounds were suspended in 1% methyl cellulose and were administered to the rat at a dose of 100 mg/kg body weight per os, 30 minutes before the stress. After stressing for 18 hours, the animals were killed by a blow on the head. The removed stomach was filled with 1% formalin solution, placed in 1% formalin solution for 15 minutes and was then cut open along the greater curvature and examined for lesion to obtain the ulcer index. The ulcer index was determined in six grades (0-5; 5 implying perforation of stomach).

[1] = tested on: carragenin-induced rat paw edema; assay: Carragenin-induced rat paw edema (anti-inflammatory effect); assay type: in vivo; conditions: 300 mg/kg oral, Wister rat, maximum percentage inhibition during 4 hours after administration
Protocol: The anti-inflammatory effect of these compounds on carragenin-induced rat paw edema was examined in accordance with the method of C. A. Winter (J. Pharmacol. 141, 369, […]. The compounds of the present invention were suspended in 1% methyl-cellulose and orally administered at a dose of 300 mg/kg to Wister rat, weighing about 140 g. The maximum percentage inhibition during 4 hours after administration was calculated as follows: [formula] The results are shown in Table 3.

[2] = Acute toxicity in ddY strain mice, up and down method, oral; conditions: mouse, in vivo, suspended in 1% methyl cellulose, given orally, observation 24 hours, read-out: LD50 (per os)
Protocol: Acute toxicity of the compounds of the present invention in ddY strain mice was determined by the up and down method, with observation for 24 hours. The compounds in this experiment were suspended in 1% methyl cellulose and given orally.

SMILES | NANA content in gastric juice, free (gastric epithelial cell) | NANA content in gastric juice, bound (gastric epithelial cell) | NANA content in gastric juice, total (gastric epithelial cell) | Score (ulcer index, six grades 0-5; 5 implying perforation of stomach) (stress ulcer) | Maximum inhibition [1] | LD50 at 24 h [2]
CC(C)=CCCC(C)=CCCC(C)=CCOC(=O)CC=C(C)CCC=C(C)CCC=C(C)C [Compound V, Farnesyl farnesyl carboxylate] | 17.6 µg/mL | 74.5 µg/mL | 92.1 µg/mL | 1.8 ± 0.50 | 35.8% | 24500 mg/kg
CC(C)=CCCC(C)=CCCC(C)=CCNC(=O)CC=C(C)CCC=C(C)CCC=C(C)C [Compound VI, N-Farnesyl farnesyl carboxamide] | 18.3 µg/mL | 87.4 µg/mL | 105.7 µg/mL | 2.3 ± 0.72 | 30.1% | 18700 mg/kg
CC(C)=CCCC(C)=CCCC(C)=CCNC(=O)OCC=C(C)CCC=C(C)CCC=C(C)C [Compound VII, N-Farnesyl farnesyl carbamate] | 16.7 µg/mL | 81.3 µg/mL | 98.3 µg/mL | 2.1 ± 0.41 | 23.7% | 20200 mg/kg
